We go through one compound from patent publication US12012387B2, “Triazine compound and use thereof” (priority 2018, dated 2024).

Data set [1] has as its system Gram-negative bacteria and Gram-positive bacteria. The data set is described as follows: Antibacterial activity, MIC over the four strains (GM). Type of data set: cell-based. The settings on record: mean of the MIC values of the four strains. How it is done: To confirm the antibacterial activity, a minimal inhibitory concentration (MIC) value, which is a minimum concentration at which fungus bodies are not divided, was measured. Specifically, the strains disclosed in the following table 1 were purchased, incubated in each medium up to a mid-log phase, diluted to a fungus body concentration of 2×10^5 cells/100 μl, and inoculated into a micro titrate plate (Nunc, USA). […] A control group was treated with melittine by the same method as above, so as to determine an MIC value for each strain.

The next data set concerns trypsin. The data set is described as follows: Stability against protease (radial diffusion assay after trypsin treatment). Format: in vitro ADME. The settings on record: 24 hours after trypsin culture; FIG. 2. How it is done:
To confirm the stability against the protease, trypsin degradation was identified by using a radial diffusion assay method after treatment with each of the triazine compounds of the following example. Specifically, the cultured strains (Escherichia coli) were incubated in 10 mL of LB medium at 37° C. for 18 hours, after which 10 μl of the culture fluid was inoculated into 10 mL of fresh BL medium and then further incubated for three hours, so as to obtain bacteria in a mid-logarithmic phase. For the radial diffusion assay method, a bacterial suspension (2×10^6 CFU/mL in LB) was mixed with 0.7% agarose and rapidly dispersed, after which the resulting mixed solution was poured into a 10 cm-long Petri dish. Each 5 μl of the triazine compound solution (10 mg/mL) of the following example was added to 25 μl of trypsin solution (0.2 μg/mL in PBS), and incubated at 37° C. for six hours. A reaction was terminated by freezing with liquid nitrogen, after which each 10 μl was taken, seeded on circular paper having a diameter of 6 mm placed on the Petri dish containing the agarose, and incubated overnight at 37° C. To quantify the inhibitory activity, the clearance zones of bacteria around the circular paper were measured to confirm the antibacterial activity. As a control group, melittine was used.

Consider `CC[C@H](C)[C@H](NC(=O)CN)C(=O)NCC(=O)N[C@@H](C)C(=O)N[C@H](C(=O)N[C@@H](CC(C)C)C(=O)N[C@@H](CCCCN)C(=O)N[C@H](C(=O)N[C@@H](CC(C)C)C(=O)N[C@H](C(=O)N[C@H](C(=O)NCC(=O)N[C@@H](CC(C)C)C(=O)N1CCC[C@H]1C(=O)N[C@@H](C)C(=O)N[C@@H](CC(C)C)C(=O)N[C@H](C(=O)N[C@@H](CO)C(=O)N[C@@H](Cc1c[nH]c2ccccc12)C(=O)N[C@H](C(=O)N[C@@H](CCCCN)C(=O)N[C@@H](CCCNC(=N)N)C(=O)N[C@@H](CCCCN)C(=O)N[C@@H](CCCNC(=N)N)C(=O)N[C@@H](CCC(N)=O)C(=O)N[C@@H](CCC(N)=O)C(N)=O)[C@@H](C)CC)[C@@H](C)CC)[C@@H](C)O)[C@@H](C)O)C(C)C)C(C)C` [Melittin], for which, in data set [1], the GM stood at 3.8 µM. Besides, the “antibacterial activity against E. coli after trypsin culture” value in the data set with trypsin is “remarkable decrease in the antibacterial activity”.
